Reference: PMC9322950 (Pharmaceutics, 2022)
In brackets after ≈: the same amount, converted by molar mass.

Legend:
clinical = settings: human, in vivo
Experimental: All included patients were ≥ 18 years old, diagnosed with an advanced stage breast cancer, and provided written informed consent. Blood samples taken at routinely scheduled visits plus extensive collection over a 10-12 h dosing interval were gathered during the study. Collected samples were centrifuged, and plasma was stored at -80 °C allowing its conservation until drug level measurements. […] Moreover, information was reconciled with data collected in the randomized controlled medication adherence study in a subset of patients. […] The chromatographic separation was performed on a column XSelect HSS T3 2.1 × 75 mm, 3.5 μm (Waters®, Milford, MA, USA) using a mobile phase composed of a gradient of ammonium acetate 2 mM (+0.1 formic acid) and acetonitrile (+0.1 formic acid). […] The method was validated over the clinically relevant concentration range, i.e., from 0.5 to 500 ng/mL. […] One- and two-compartment models with first- or zero-order absorption, potentially including an absorption lag time were tested. Inter-individual variability was modeled exponentially and tested sequentially on all parameters. Additive, proportional, and mixed models for residual error were compared. Potential associations between post hoc individual parameter estimates and demographic or clinical characteristics were first visually explored and then tested in the model. […] The characteristics available for testing their effect on PD parameters were as follows: age, body weight, ALK, BILT, gamma-glutamyltransferase (GGT), albumin, AST, ALT, eGFR, association with fulvestrant, chemotherapy in the previous treatment line, and POCT measurement. […] Baseline values of continuous covariates were tested on the base ANC parameter while time-varying values were tested on Emax. Continuous covariates were centered and normalized on their median value and tested by linear or allometric functions as appropriate. Missing data were imputed to the population median value. Categorical covariates were coded as 0 or 1, and missing data were first treated as an additional category and then regrouped according to their parameter estimates. The first-order conditional estimation method with interaction (FOCEI) was used for model fitting with the ADVAN4 TRANS4 subroutine for the PK model and the ADVAN6 subroutine defining a system of ordinary differential equations for the PK/PD model. Models were selected based on the improvement in standard goodness-of-fit plots, precision of parameter estimates and eta shrinkage. […] The covariate analysis was performed by forward inclusion (significant level for ΔOFV ≤ -3.84, p ≤ 0.05) followed by backward deletion (significant level for ΔOFV ≥ 7.88, p ≤ 0.005). The final PK/PD model was evaluated with a non-parametric bootstrap using 502 replicates of the initial dataset. The generated median parameters and their CI95% were compared to the final model estimates. In addition, prediction-corrected visual predictive checks (pc-VPCs) were performed to diagnose potential model misspecification by visually comparing observed concentrations with prediction percentiles.

[1] = tested on: absolute neutrophil count (ANC); test: Semi-mechanistic PK/PD neutropenia model (exposure–toxicity relationship, ANC time course); type: in vivo, human; settings: for Emax (maximum estimated drug effect on kprol) / ωEC50 (between-subject variability) / ωEmax (between-subject variability): final PK/PD model
Experimental: ANC was directly retrieved from the patients' medical records up to the date of the last PK observation. The most recent ANC value in the three months before palbociclib initiation was retained as the base value. Blood sampling for ANC measurement was performed either concomitantly or separately from that for palbociclib quantification. The proliferation, maturation, and homeostatic regulation of neutrophils were mimicked by a series of 5 compartments, as described in the model developed by Friberg et al.. This structural model was directly applied to our data. The first compartment represented stem cells and proliferating precursor cells in the bone marrow with the systematic renewal of proliferative cells' production modeled by the rate constant kprol. This compartment was followed by three transit compartments to account for the delay between proliferation and maturation according to the first-order rate constant ktr, defined as n+1/MTT , where MTT is the mean transit time of neutrophils. The last compartment characterized the blood circulation with the neutrophil elimination rate constant kcirc. The rate constants kprol, ktr, and […] assumed to be equal, as in the original model. […] ANCs were log-transformed before the analysis, and an additive error on the log scale was used to describe residual variability. Owing to long computation runtime, neutropenia model development was first performed by fixing the PK parameters that were estimated together with PD parameters in the final model. Potential associations between post hoc individual parameter estimates and demographic or clinical characteristics were first visually explored and then tested in the model. […] The characteristics available for testing their effect on PD parameters were as follows: age, body weight, ALK, BILT, gamma-glutamyltransferase (GGT), albumin, AST, ALT, eGFR, association with fulvestrant, chemotherapy in the previous treatment line, and POCT measurement. […] Despite high inter-individual variability on EC50, covariates were not tested on this parameter and were substituted by covariates on Emax as recommended in good practices for exposure-response analyses. Baseline values of continuous covariates were tested on the base ANC parameter while time-varying values were tested on Emax. Continuous covariates were centered and normalized on their median value and tested by linear or allometric functions as appropriate. Missing data were imputed to the population median value. Categorical covariates were coded as 0 or 1, and missing data were first treated as an additional category and then regrouped according to their parameter estimates. The first-order conditional estimation method with interaction (FOCEI) was used for model fitting with the ADVAN4 TRANS4 subroutine for the PK model and the ADVAN6 subroutine defining a system of ordinary differential equations for the PK/PD model. Models were selected based on the improvement in standard goodness-of-fit plots, precision of parameter estimates and eta shrinkage. […] The covariate analysis was performed by forward inclusion (significant level for ΔOFV ≤ -3.84, p ≤ 0.05) followed by backward deletion (significant level for ΔOFV ≥ 7.88, p ≤ 0.005). The final PK/PD model was evaluated with a non-parametric bootstrap using 502 replicates of the initial dataset. The generated median parameters and their CI95% were compared to the final model estimates. In addition, prediction-corrected visual predictive checks (pc-VPCs) were performed to diagnose potential model misspecification by visually comparing observed concentrations with prediction percentiles.

[2] = Exposure–response relationship: Cox proportional hazards models on progression-free survival; type: in vivo, human; settings: human, plasma, oral; model-predicted, including OFF-treatment periods; read-out: median AUCcum90 (mean cumulative AUC0-24 over 90 days)
Text: (§1) To consider the time lapse between radiologic exams (i.e., every 3 months), mean cumulative AUC0-24 over 90 days (AUCcum90) was then predicted. This variable was selected as the exposure metric to be tested as a time-dependent covariate for its influence on PFS. In consideration of the limited number of patients progressing (n = 29), we only included age at treatment initiation as an additional covariate, with an interaction term between age and exposure. Cox proportional hazards models were estimated in R (2021) to evaluate the effect of these covariates on PFS (significance level: p ≤ 0.05).

metastatic breast cancer = test: as above; type: in vivo, human; settings: 29 of 44 patients progressed
Text: as §1

[3] = tested on: absolute neutrophil count (ANC); settings: cited from earlier work
[4] = co-administration of PPIs in fasting conditions, healthy volunteers; cited from earlier work
[5] = based on PK/PD modeling; cited from earlier work
[6] = tested on: absolute neutrophil count (ANC); settings: final PK/PD model, FIX at literature value; cited from earlier work
[7] = bootstrap median (n = 502 samples)

## CC(=O)c1c(C)c2cnc(Nc3ccc(N4CCNCC4)cn3)nc2n(C2CCCC2)c1=O [palbociclib, Palbociclib]
clinical
  ALAG (absorption lag time): 2.0 h
  ALAG (absorption lag-time): 1.9 h
  CL (clearance): 68 L/h
  CLIPP,no food (clearance with concomitant coadministration of IPP under fasting conditions): 106 L/h
  Vc (central volume of distribution): 2730 L
  Vc/F (apparent central volume of distribution): 2778 L
clinical; CL (clearance)
  clearance: 1130 mL/min
clinical; CLIPP,no food (clearance with concomitant coadministration of IPP under fasting conditions)
  clearance: 1770 mL/min
clinical; Vc (central volume of distribution)
  Vd: 2700 L
clinical; Vc/F (apparent central volume of distribution)
  Vd/F: 2800 L
[1]; Homo sapiens, Neutrophil, base model, attributed to data sparseness, not retained, read-out: estimated EC50 (Emax model, before fixing)
  EC50: 0.0088 µg/mL (≈ 0.0197 µM)
[1]; [7]
  Emax (maximum estimated drug effect on kprol): 0.22
  ωEC50 (between-subject variability): 91 CV%
  ωEmax (between-subject variability): 16 CV%
[1]; estimate
  Emax (maximum estimated drug effect on kprol): 0.22
  ωEC50 (between-subject variability): 93 CV%
  ωEmax (between-subject variability): 15 CV%
[2]
  mean cumulative AUC0-24 over 90 days (AUCcum90): 1140 ng·h/mL
Metastatic breast cancer
  median PFS: 17 months
[3]
  EC50 literature value: 0.0401 µg/mL (≈ 0.0896 µM)
[4]
  decrease in AUC: 62%
[5]
  upper limit for trough concentration to avoid severe neutropenia: 100 ng/mL
[6]
  EC50 (palbociclib concentration corresponding to 50% of the maximum effect): 0.0401 µg/mL
